“And” between values parts separate entries of the source, which are not always exact repeats. Equal entries are not always repeated.
Assays:
[1] = UV absorption (UV λmax and εmax) in solution; format: physicochemical
Description: There follow some examples where the UV λmax and εmax have been measured according to general methods known for the person skilled in the art by way of non-restrictive illustration of the present invention.

Structure (SMILES)	UV λmax ([1]; DMSO)	εmax ([1]; DMSO)	further results
c1ccc(-c2ccc(NC3=NC4=NC(Nc5ccc(-c6ccccc6)cc5)=NC5=NC(Nc6ccc(-c7ccccc7)cc6)=NC(=N3)N45)cc2)cc1			melting point: > 310 °C
CCCCOC(=O)c1ccc(NC2=NC3=NC(Nc4ccc(C(=O)OCCCC)cc4)=NC4=NC(Nc5ccc(C(=O)OCCCC)cc5)=NC(=N2)N34)cc1 [Example 1, 2,5,8-tris-(4-(butoxycarbonyl)phenylamino)-1,3,4,6,7,9,9b-heptaazaphenalene]			UV λmax ([1]; CHCl3—EtOH): 325 nm; εmax ([1]; CHCl3—EtOH): 100000 M⁻¹ cm⁻¹; melting point: 289 to 290 °C
CCCCC(CC)COC(=O)c1ccc(NC2=NC3=NC(Nc4ccc(C(=O)OCC(CC)CCCC)cc4)=NC4=NC(Nc5ccc(C(=O)OCC(CC)CCCC)cc5)=NC(=N2)N34)cc1 (stereo not drawn) [Example 2, 2,5,8-tris-(4-(2-ethylhexyloxycarbonyl)phenylamino)-1,3,4,6,7,9,9b-heptaazaphenalene]			UV λmax ([1]; CHCl3): 326 nm; εmax ([1]; CHCl3): 95000 M⁻¹ cm⁻¹; melting point: 183 to 186 °C
Cc1cc2c(n1-c1ccc(NC3=NC4=NC(Nc5ccc(-n6c(C)cc7c6CC(C)(C)CC7=O)cc5)=NC5=NC(Nc6ccc(-n7c(C)cc8c7CC(C)(C)CC8=O)cc6)=NC(=N3)N45)cc1)CC(C)(C)CC2=O [Example 4, 2,5,8-tris-(4-(4,5,6,7-tetrahydro-2,6,6-trimethyl-4-oxoindol-1-yl)phenylamine)-1,3,4,6,7,9,9b-heptaazaphenalene]			UV λmax ([1]; EtOH): 314 nm; εmax ([1]; EtOH): 103000 M⁻¹ cm⁻¹
c1ccc2[nH]c(-c3ccc(NC4=NC5=NC(Nc6ccc(-c7nc8ccccc8[nH]7)cc6)=NC6=NC(Nc7ccc(-c8nc9ccccc9[nH]8)cc7)=NC(=N4)N56)cc3)nc2c1 [Example 7, 2,5,8-tris-(4-(1H-benzo[d]imidazol-2-yl)phenylamino)-1,3,4,6,7,9,9b-heptaazaphenalene]			UV λmax ([1]; CHCl3-MeOH): 358 nm; εmax ([1]; CHCl3-MeOH): 107000 M⁻¹ cm⁻¹
c1ccc2[nH]c(-c3ccc(NC4=NC5=NC(Nc6ccc(-c7nc8ccccc8[nH]7)cc6)=NC6=NC(Nc7ccc(-c8nc9ccccc9[nH]8)cc7)=NC(=N4)N56)cc3)nc2c1 [Example 8, 2,5,8-tris-(4-(1H-benzo[d]imidazol-2-yl)phenylamino)-1,3,4,6,7,9,9b-heptaazaphenalene]			melting point: > 275 °C
c1ccc2cc(NC3=NC4=NC(Nc5ccc6ccccc6c5)=NC5=NC(Nc6ccc7ccccc7c6)=NC(=N3)N45)ccc2c1 [Example 17, 2,5,8-tris-(naphthalen-2-ylamino)-1,3,4,6,7,9,9b-heptaazaphenalene]	279 nm and 331 nm	89000 M⁻¹ cm⁻¹ and 75000 M⁻¹ cm⁻¹	melting point: > 275 °C
CCCCOC(=O)c1ccc(NC2=NC3=NC(Nc4ccc(C(=O)OCCCC)cc4)=NC4=NC(c5cn(C)c6ccccc56)=NC(=N2)N34)cc1 [Example 18]	337 nm	65000 M⁻¹ cm⁻¹	
c1ccc(-c2ccc(OC3=NC4=NC(Oc5ccc(-c6ccccc6)cc5)=NC5=NC(Oc6ccc(-c7ccccc7)cc6)=NC(=N3)N45)cc2)cc1 [Example 19, 2,5,8-tris-(biphenyl-4-yloxy)-1,3,4,6,7,9,9b-heptaazaphenalene]	262 nm	81000 M⁻¹ cm⁻¹	
COc1cccc(NC2=NC3=NC(Nc4cccc(OC)c4)=NC4=NC(Nc5cccc(OC)c5)=NC(=N2)N34)c1 [Example 20, 2,5,8-tris-(3-methoxyphenylamino)-1,3,4,6,7,9,9b-heptaazaphenalene]			UV λmax ([1]; MeOH): 312 nm; εmax ([1]; MeOH): 62000 M⁻¹ cm⁻¹; melting point: > 275 °C
COc1ccc(NC2=NC3=NC(Nc4ccc(OC)cc4)=NC4=NC(Nc5ccc(OC)cc5)=NC(=N2)N34)cc1 [Example 21, 2,5,8-tris-(4-methoxyphenylamino)-1,3,4,6,7,9,9b-heptaazaphenalene]	324 nm	59000 M⁻¹ cm⁻¹	
Cc1ccc(C2=NC3=NC(c4ccc(C)cc4)=NC4=NC(c5ccc(C)cc5)=NC(=N2)N34)cc1 [Example 25, 2,5,8-tris-(4-methylphenyl)-1,3,4,6,7,9,9b-heptaazaphenalene]	327 nm	86000 M⁻¹ cm⁻¹	
CCCCC(CC)CNC1=NC2=NC(NCC(CC)CCCC)=NC3=NC(NCC(CC)CCCC)=NC(=N1)N23 (stereo not drawn) [Example 29, 2,5,8-tris-(2-ethylhexylamino)-1,3,4,6,7,9,9b-heptaazaphenalene]	265 nm	92000 M⁻¹ cm⁻¹	
CCCCC(CC)COC(=O)/C=C/c1ccc(NC2=NC3=NC(Nc4ccc(/C=C/C(=O)OCC(CC)CCCC)cc4)=NC4=NC(Nc5cccc(/C=C/C(=O)OCC(CC)CCCC)c5)=NC(=N2)N34)cc1 (stereo not drawn) [Example 34, 2-(3-((E)-3-(2-ethylhexyloxy)-3-oxoprop-1-enyl)phenylamino)-5,8-bis-(4-((E) -3-(2-ethylhexyloxy)-3-oxoprop-1-enyl)phenylamino)-1,3,4,6,7,9,9b-heptaazaphenalene]	288 nm and 354 nm	66000 M⁻¹ cm⁻¹ and 113000 M⁻¹ cm⁻¹	
O=[N+]([O-])c1cccc(NC2=NC3=NC(Nc4cccc([N+](=O)[O-])c4)=NC4=NC(Nc5cccc([N+](=O)[O-])c5)=NC(=N2)N34)c1 [Example 35, 2,5,8-tris-(3-nitrophenylamino)-1,3,4,6,7,9,9b-heptaazaphenalene]	308 nm	113000 M⁻¹ cm⁻¹	
CCCCCCCCC(CCCCCC)COC(=O)c1ccc(NC2=NC3=NC(Nc4ccc(C(=O)OCC(CCCCCC)CCCCCCCC)cc4)=NC4=NC(Nc5ccc(C(=O)OCC(CCCCCC)CCCCCCCC)cc5)=NC(=N2)N34)cc1 (stereo not drawn) [Example 38, 2,5,8-tris-(4-(^2-hexyldecyloxycarbonyl)phenylamino)-1,3,4,6,7,9,9b-heptaazaphenalene]	324 nm	121000 M⁻¹ cm⁻¹	
CCCCCCCCCCCCCCCCCCOC(=O)c1ccc(NC2=NC3=NC(Nc4ccc(C(=O)OCCCCCCCCCCCCCCCCCC)cc4)=NC4=NC(Nc5ccc(C(=O)OCCCCCCCCCCCCCCCCCC)cc5)=NC(=N2)N34)cc1 [Example 40, 2,5,8-tris-(4-(octadecyloxycarbonyl)phenylamino)-1,3,4,6,7,9,9b-heptaazaphenalene]	324 nm	117000 M⁻¹ cm⁻¹	
CCCCCCCCCCCCOC(=O)c1ccc(NC2=NC3=NC(Nc4ccc(C(=O)OCCCCCCCCCCCC)cc4)=NC4=NC(Nc5ccc(C(=O)OCCCCCCCCCCCC)cc5)=NC(=N2)N34)cc1 [Example 44, 2,5,8-tris-(4-(dodecyloxycarbonyl)phenylamino)-1,3,4,6,7,9,9b-heptaazaphenalene]	326 nm	87000 M⁻¹ cm⁻¹	
CC12CCC(C1)C(C)(C)C2OC(=O)c1ccc(NC2=NC3=NC(Nc4ccc(C(=O)OC5C6(C)CCC(C6)C5(C)C)cc4)=NC4=NC(Nc5ccc(C(=O)OC6C7(C)CCC(C7)C6(C)C)cc5)=NC(=N2)N34)cc1 (stereo not drawn) [Example 45]	330 nm	150000 M⁻¹ cm⁻¹	
c1cc2cc(NC3=NC4=NC(Nc5ccc6[nH]ccc6c5)=NC5=NC(Nc6ccc7[nH]ccc7c6)=NC(=N3)N45)ccc2[nH]1 [Example 46, 2,5,8-tris-(1H-indol-5-ylamino)-1,3,4,6,7,9,9b-heptaazaphenalene]	331 nm	46000 M⁻¹ cm⁻¹	
Cc1cc(N)c(NC2=NC3=NC(Nc4cc(C)c(C)cc4N)=NC4=NC(Nc5cc(C)c(C)cc5N)=NC(=N2)N34)cc1C [Example 48, 2,5,8-tris-(2-amino-4,5-dimethylphenylamino)-1,3,4,6,7,9,9b-heptaazaphenalene]	270 nm	44000 M⁻¹ cm⁻¹	

Second part, led by results:

UV λmax ([1]; DMSO)	εmax ([1]; DMSO)	Structure (SMILES)	further results
353 nm	75000 M⁻¹ cm⁻¹	c1ccn2cc(-c3ccc(NC4=NC5=NC(Nc6ccc(-c7cn8ccccc8n7)cc6)=NC6=NC(Nc7ccc(-c8cn9ccccc9n8)cc7)=NC(=N4)N56)cc3)nc2c1 [Example 3, 2,5,8-tris-(4-(imidazo[1,2-a]pyridin-2-yl)-phenylamino)-1,3,4,6,7,9,9b-heptaazaphenalene]	
333 nm	103000 M⁻¹ cm⁻¹	c1ccc(-c2ccc(NC3=NC4=NC(Nc5ccc(-c6ccccc6)cc5)=NC5=NC(Nc6ccc(-c7ccccc7)cc6)=NC(=N3)N45)cc2)cc1 [Example 6, 2,5,8-tris-(biphenyl-4-ylamino)-1,3,4,6,7,9,9b-heptaazaphenalene]	
339 nm	112000 M⁻¹ cm⁻¹	O=C(c1ccccc1)c1ccc(NC2=NC3=NC(Nc4ccc(C(=O)c5ccccc5)cc4)=NC4=NC(Nc5ccc(C(=O)c6ccccc6)cc5)=NC(=N2)N34)cc1 [Example 14, 2,5,8-tris-(4-benzoylphenylamino)-1,3,4,6,7,9,9b-heptaazaphenalene]	melting point: > 270 °C
330 nm	99000 M⁻¹ cm⁻¹	c1cnn(-c2ccc(NC3=NC4=NC(Nc5ccc(-n6cccn6)cc5)=NC5=NC(Nc6ccc(-n7cccn7)cc6)=NC(=N3)N45)cc2)c1 [Example 15, 2,5,8-tris-(4-(1H-pyrazol-1-yl)phenylamino)-1,3,4,6,7,9,9b-heptaazaphenalene]	melting point: 224 to 227 °C
346 nm	99000 M⁻¹ cm⁻¹	COC(=O)c1ccc(-c2ccc(NC3=NC4=NC(Nc5ccc(-c6ccc(C(=O)OC)cc6)cc5)=NC5=NC(Nc6ccc(-c7ccc(C(=O)OC)cc7)cc6)=NC(=N3)N45)cc2)cc1 [Example 23, 2,5,8-tris-(methoxycarbonyl-4′-biphenyl-4-ylamino)-1,3,4,6,7,9,9b-heptaazaphenalene]	
360 nm	60000 M⁻¹ cm⁻¹	c1ccc(Nc2ccc(NC3=NC4=NC(Nc5ccc(Nc6ccccc6)cc5)=NC5=NC(Nc6ccc(Nc7ccccc7)cc6)=NC(=N3)N45)cc2)cc1 [Example 27, 2,5,8-tris-(4-(phenylamino)phenylamino)-1,3,4,6,7,9,9b-heptaazaphenalene]	
316 nm	167000 M⁻¹ cm⁻¹	C(=C\c1cccc(NC2=NC3=NC(Nc4cccc(/C=C/c5ccccc5)c4)=NC4=NC(Nc5cccc(/C=C/c6ccccc6)c5)=NC(=N2)N34)c1)/c1ccccc1 [Example 37, 2,5,8-tris-((3-(E)-styrylphenyl)amino)-1,3,4,6,7,9,9b-heptaazaphenalene]	
